The text below walks through data of DBAASP.

Some test systems named below: Fusarium oxysporum; Ramulariopsis gossypii; Trichoderma asperellum; Fusarium solani; Escherichia coli UB1005.
Common to all, as to assay: ≥ marks a high value that may be exact or a test limit, other limits are often not marked, values filed in µg/mL are converted to µM
The subject of assay [1] is Escherichia coli NCTC 10418.
In assay [2] the test system is Staphylococcus aureus NCTC 10788.
For assay [3], the system named is Pseudomonas aeruginosa ATCC 27853.
The test system of assay [4] is Staphylococcus aureus ATCC 12493.
Assay [5] deals with Candida albicans NCYC 1467.
Assay [6] concerns Candida albicans NCPF 1467.
The subject of assay [7] is Fusarium oxysporum f.sp. vasinfectum.
Assay [8] has as its system Bacillus cereus ATCC 14579.
The test system of assay [9] is Escherichia coli ATCC 25922.
For assay [10], the system named is Pectobacterium carotovorum.
The subject of assay [11] is Xanthomonas campestris pv. citri.
Assay [12] relates to Bacillus subtilis ATCC 23857.
Assay [13] concerns Pseudomonas syringae pv. tabaci.
In assay [14] the test system is Candida albicans ATCC 90028.
The test system of assay [15] is Cryptococcus neoformans ATCC 28957.
Assay [16] deals with Staphylococcus aureus ATCC 25923.
In assay [17] the test system is Staphylococcus aureus ATCC 43300.
The subject of assay [18] is Staphylococcus epidermidis ATCC 12228.
In assay [19] the test system is Salmonella enterica subsp. enterica serovar Pullorum C79-13.
The subject of assay [20] is Staphylococcus aureus ATCC 29213.
For assay [21], the system named is Salmonella typhimurium ATCC 7731.
Assay [22] has as its system Enterococcus faecalis ATCC 29212.
The test system of assay [23] is Bacillus subtilis CMCC 63501.

Values after ≈ are worked out from the molar mass of the structure shown.

As for `CC[C@H](C)[C@@H]1NC(=O)[C@H](CO)NC(=O)[C@H](CCCCN)NC(=O)[C@H]([C@@H](C)O)NC(=O)[C@H](Cc2c[nH]c3ccccc23)NC(=O)[C@@H](NC(=O)CNC(=O)[C@H](CCCN=C(N)N)NC(=O)[C@H](CC(C)C)NC(=O)[C@H](C)N)CSSC[C@@H](C(=O)N[C@@H](CCCCN)C(N)=O)NC(=O)[C@@H]2CCCN2C(=O)[C@H](CCCCN)NC(=O)[C@@H]2CCCN2C(=O)[C@@H]2CCCN2C1=O` [ALRGCWTKSIPPKPCK], the MIC (in general, the smallest concentration in the dilution series that meets the test's criterion for growth inhibition) in assay [1] is ≥ 512 µM; in [2] it was ≥ 512 µM; in [3] it was > 512 µM; in assay [4], ≥ 512 µM; in assay [5], ≥ 512 µM.
Consider `CC[C@H](C)[C@H](NC(=O)CN)C(=O)NCC(=O)NCC(=O)N[C@@H](C)C(=O)N[C@@H](CC(C)C)C(=O)N[C@@H](CC(C)C)C(=O)N[C@@H](CO)C(=O)N[C@@H](Cc1ccccc1)C(=O)NCC(=O)N[C@@H](CCCCN)C(=O)N[C@@H](CO)C(=O)N[C@@H](C)C(=O)N[C@@H](CC(C)C)C(=O)N[C@@H](CCCCN)C(=O)NCC(=O)N[C@@H](CC(C)C)C(=O)N[C@@H](C)C(=O)N[C@@H](CCCCN)C(=O)NCC(=O)N[C@@H](CC(C)C)C(=O)N[C@@H](C)C(=O)N[C@@H](CCC(=O)O)C(=O)N[C@@H](Cc1cnc[nH]1)C(=O)N[C@@H](Cc1ccccc1)C(N)=O` [GIGGALLSFGKSALKGLAKGLAEHF], for which the MIC worked out at 1.64 µM (≈ 4 µg/mL) in assay [6]; 6.55 µM (≈ 16 µg/mL) in assay [1]; 1.64 µM (≈ 4 µg/mL) in [2]; 26.2 µM (≈ 64 µg/mL) in assay [3]; 6.55 µM (≈ 16 µg/mL) in [4].
Consider `CSCC[C@H](NC(=O)[C@H](Cc1ccccc1)NC(=O)CNC(=O)[C@H](Cc1cnc[nH]1)NC(=O)[C@H](CC(C)C)NC(=O)[C@H](CO)NC(=O)CN)C(=O)N[C@@H](Cc1ccc(O)cc1)C(=O)N[C@@H](CCCN=C(N)N)C(=O)N[C@@H](Cc1ccc(O)cc1)C(=O)N[C@@H](CC(C)C)C(=O)N[C@@H](CCCCN)C(=O)N[C@@H](CC(N)=O)C(=O)N[C@@H](CCSC)C(=O)N[C@H](C(=O)N[C@@H](CC(C)C)C(=O)N[C@@H](CC(N)=O)C(=O)N[C@@H](CC(C)C)C(=O)N[C@@H](Cc1ccccc1)C(N)=O)C(C)C` [GSLHGFMYRYLKNMVLNLF], for which the minimum inhibitory concentration (MIC) in assay [7] was 8 µM (≈ 18.4 µg/mL); in assay [8], ≥ 64 µM; in assay [9], 32 µM (≈ 73.7 µg/mL); in assay [10], ≥ 128 µM; in [11], ≥ 64 µM; in the assay with Fusarium oxysporum, ≥ 32 µM. Moreover, the MIC in assay [12] was 8 µM (≈ 18.4 µg/mL); in assay [13], 16 µM (≈ 36.8 µg/mL); in [14], 2.67 µM (≈ 6.15 µg/mL); in the assay with Ramulariopsis gossypii, 4 µM (≈ 9.21 µg/mL); in assay [3], 32 µM (≈ 73.7 µg/mL); with Trichoderma asperellum, ≥ 32 µM. The figures for the MIC (in assay [15]; in assay [16]; in the assay with Fusarium solani) were 8 µM (≈ 18.4 µg/mL), 4 µM (≈ 9.21 µg/mL) and 16 µM (≈ 36.8 µg/mL), respectively.
With `CC[C@H](C)[C@H](N)C(=O)N[C@@H](Cc1cnc[nH]1)C(=O)N[C@@H](CCCCN)C(=O)N[C@@H](Cc1ccccc1)C(=O)N[C@@H](Cc1c[nH]c2ccccc12)C(=O)N[C@@H](CCCN=C(N)N)C(=O)NCC(=O)NCC(=O)N[C@@H](CCCN=C(N)N)C(=O)N[C@@H](Cc1c[nH]c2ccccc12)C(=O)N[C@@H](Cc1ccccc1)C(=O)N[C@@H](CCCCN)C(=O)N[C@@H](Cc1cnc[nH]1)C(=O)N[C@H](C(N)=O)[C@@H](C)CC` [IHKFWRGGRWFKHI], the MIC is 8 µM (≈ 14.9 µg/mL) in assay [9]; 32 µM (≈ 59.8 µg/mL) in assay [17]; 32 µM (≈ 59.8 µg/mL) in [18]; 8 µM (≈ 14.9 µg/mL) in assay [19]; 16 µM (≈ 29.9 µg/mL) in assay [20]; ≥ 64 µM in assay [21]. In addition, the minimum inhibitory concentration (MIC) with Escherichia coli UB1005 came to 8 µM (≈ 14.9 µg/mL); in assay [22] it was 32 µM (≈ 59.8 µg/mL); in assay [3], 16 µM (≈ 29.9 µg/mL); in assay [23] it was 16 µM (≈ 29.9 µg/mL).
